In patent publication US9750805B2, “Calcium flux agonists and methods therefor” (Nant Holdings IP, LLC, priority 2012, dated 2017):

Assays:
[1] = tested on: methicillin-sensitive S. aureus (MSSA); experiment: Direct antibiotic activity in liquid culture assay, MSSA; assay type: cell-based
Description: Consistent with these and previous results regarding their inherent antibiotic activity against S. aureus, the inventors confirmed the direct antibiotic activity of both ionophores for direct antibiotic activity on methicillin-sensitive S. aureus (MSSA).
To determine the antibiotic sensitivity of S. aureus, cultures were grown overnight in tryptic soy broth (Cellgro). The resulting cultures were used to inoculate new cultures to ensure log phase growth prior to the start of the experiment. Once the bacteria had reached log phase the bacteria was diluted to the appropriate OD600˜0.05 and transferred to a 24-well plate. Compounds of interest were added and plates were incubated in a shaking incubator at 37° C. Aliquots were removed at various time points and their respective OD600 was measured using a BioTek Synergy2 microplate reader (BioTek, Winooski, Vt.). For wells whose turbidity was affected by the addition of the compounds of interest, aliquots were removed and plated on tryptic soy agar (Cellgro) and incubated overnight in a 37° C. incubated and counted the following day. Thus, it should be appreciated that the calcium flux agonists are effective in antimicrobial treatments via an indirect effect, most likely due to the enhanced production of IL-8 and increased NF-κB-driven transcription.

[2] = tested on: κB-LUC THP-1 reporter cells; experiment: κB-LUC THP-1 reporter response to S. aureus conditioned/spent media (FIGS. 5B-5E); assay type: cell-based, human; details: 1:100 conditioned media, 18 hours; 20 nM thapsigargin, 316 nM A23187, 1 μM ionomycin vs DMSO vehicle
Text: Briefly, a culture of logarithmically dividing S. aureus was washed three times with RPMI 1640 (Cellgro). Concurrently, THP-1 κB-LUC THP-1's (THP-1 cells containing the stable integration of a NF-κB luciferase reporter gene) cultured in RPMI 1640 (Cellgro) supplemented with 10% FBS (Thermo HyClone, Waltham Mass.) and 1% penicillin-streptomycin-fungizone (Thermo HyClone) were washed three times with RPMI 1640 (Cellgro) and transferred to the bottom compartment of a 24-well 0.4 μm cutoff transwell plate (Corning) at a concentration of 1.2 million/mL. Dilutions of the washed S. aureus culture were then added to the top chamber of the transwell system at the indicated initial multiplicities of infection (MOI). The cells were incubated for 18 hours at 37° C. at which time aliquots of 60,000 cells were transferred to wells in a 384-well white bottom plate (Thermo). To evaluate luciferase gene expression, Bright-Glo Luciferase Assay Reagent (Promega) was added to each well and the plates were analyzed for luciferase activity using the Perkin Elmer TopCount NXT system (Perkin Elmer).
To determine whether the recognition of S. aureus-produced products could be further augmented through modulation of calcium flux, κB-LUC THP-1 reporter cells were incubated in the presence of a 1:100 dilution (V/V) of sterile filtered S. aureus conditioned (i.e. spent) or unused sterile media and treated with a suboptimal dose (20 nM) of thapsigargin or dimethyl sulfoxide (DMSO) vehicle control as described above. Briefly, conditioned media was produced by culturing S. aureus in RPMI with 10% fetal bovine serum overnight in a shaking incubator at 37° C. following which the bacteria were pelleted by centrifugation and the supernatants filter-sterilized using a 0.2 μm filter (VWR Radnor PA). The κB-LUC THP-1 cells were incubated in the presence of the conditioned/spent media for 18 hours prior to luciferase assay as described above.

[3] = tested on: TLR2 ligand response of THP-1 promonocytic leukemia cell line; experiment: IL-8 release with TLR2 ligand plus suboptimal calcium flux agonist (FIG. 2); assay type: cell-based, human; details: THP-1 cells, suboptimal doses of ionophore; beyond cumulative individual responses (synergy)
Description: (§1) For example, human promonocytic THP-1 cells were incubated in the presence or absence of a suboptimal dose of the TLR2 ligand Pam2CSK4 and compared to similarly treated cells which also received suboptimal doses of ionophore (here: A23187 and ionomycin). […] In another example, NF-κB THP-1 cells (a THP-1-derived transfectant line harboring an NF-κB-driven luciferase expression cassette) were cultivated in the presence or absence of a suboptimal dose of the TLR2 ligand Pam2CSK4 and compared to similarly treated cells that also received suboptimal doses of various SERCA inhibitors.
Here, the ionophores A23187 and ionomycin, as well as the SERCA inhibitor thapsigargin synergize with the TLR2 ligand (Pam2CYS) in the activation of cytokine release from the human THP-1 promonocytic leukemia cell line. It should be especially noted that while the TLR2 ligand alone provided for about 5 ng/ml IL-8 response, addition of a suboptimal dose of the calcium flux agonists (e.g. 20 nM for thapsigargin, 316 nM for A23187, and 1 μM for ionomycin) produced more than 10-fold quantities of IL-8 production in the cells.

[4] = molecular target: sarco/endoplasmic reticulum Ca2+ ATPases (SERCA); details: cited from earlier work
S. aureus = experiment: Killing of intracellular S. aureus by thapsigargin-treated differentiated THP-1 cells (FIG. 11); assay type: cell-based, human; details: 1 day with 20 nM thapsigargin vs vehicle, MOI of 10
Description: Briefly, a logarithmically dividing S. aureus was pelleted (2000×g for 10 min) and washed three times with Hank's Buffered Salt Solution (Cellgro). Concurrently, 2 day differentiated THP-1 cells (using 1 uM retinoic acid and 1 uM cholecalciferaol, Sigma-Aldrich) followed by 1 day with 20 nM thapsigargin or vehicle were collected and washed in Hank's Buffered Salt Solution. Differentiated cells were supplemented with 10% human serum (Innovative Research) and chilled on ice for 30 minutes. After the 30 minutes, S. aureus (MOI of 10) was added on ice for an additional 20 minutes to synchronize binding. Tubes were then incubated for 20 minutes at 37° C. After 20 minutes, 10 U/mL of lysostaphin (Sigma-Aldrich) was added to eliminate non-internalized bacteria. At the desired time points (20, 30, 60 minutes) 20 uL aliquots were removed and diluted into 10 mL of water. The dilution tubes were vortex and allowed to sit at room temp for 10 minutes to ensure proper lysis of the primary cells. After 10 minutes, the dilution tubes were centrifuged for 10 minutes at 2000×g and the remaining S. aureus was concentrated 20 fold and plated in triplicate on tryptic soy agar (Cellgro) and incubated overnight at 37° C. prior to colony enumeration.

NF-κB THP-1 cells = experiment: NF-κB luciferase reporter synergy with TLR2 ligand and effect of Ca2+ modulating compounds (FIG. 4); assay type: cell-based, human; details: NF-κB THP-1 cells, suboptimal doses of SERCA inhibitors; beyond cumulative individual responses (synergy)
Description: as §1
The inventors further investigated if the nature of calcium flux was of significance as increased intracellular calcium may have different origins. To that effect, the inventors used various calcium signaling modulators to investigate the nature of the calcium flux and contribution. As can be readily taken from the data shown, extracellular calcium flux into the cell was critical for synergistic amplification of calcium signaling. More specifically, FIG. 4 illustrates the effects of different Ca^2+ modulating compounds on synergy with respect to NF-κB activation.

| Structure (SMILES) | direct antibiotic activity against MSSA [1] | NF-κB reporter response to S. aureus conditioned/spent media [2] | amount of IL-8 produced with suboptimal TLR2 ligand Pam2CSK4 [3] | affinity constant of Thapsigargin:SERCA binding [4] | antimicrobial activity of treated cells against internalized S. aureus (S. aureus) | amount of luciferase produced with suboptimal TLR2 ligand Pam2CSK4 (NF-κB THP-1 cells) |
| --- | --- | --- | --- | --- | --- | --- |
| CNc1ccc2oc(C[C@H]3O[C@@]4(CC[C@H]3C)O[C@H]([C@H](C)C(=O)c3ccc[nH]3)[C@H](C)C[C@H]4C)nc2c1C(=O)O [A23187, calcimycin] | the more active compound | significantly enhanced | significantly increased |  |  |  |
| C[C@H](CCC(=O)O)C[C@H](C)C[C@H](C)C(=O)/C=C(\O)[C@H](C)C[C@H](C)C/C=C/[C@@H](C)[C@@H](O)[C@@H](C)[C@@H](O)C[C@@H]1CC[C@@](C)([C@H]2CC[C@@](C)([C@@H](C)O)O2)O1 [ionomycin] |  | significantly enhanced | significantly increased |  |  |  |
| C/C=C(/C)C(=O)O[C@H]1C(C)=C2[C@H]([C@@H]1OC(=O)CCCCCCC)[C@@](C)(OC(C)=O)C[C@H](OC(=O)CCC)[C@@]1(O)[C@H]2OC(=O)[C@@]1(C)O [thapsigargin] |  | significantly enhanced |  | low picomolar range | greater antimicrobial activity | significantly increased |
